{"source": "patent US6806267B1", "about": "“Apoptosis-inducing compounds” (priority 1998, dated 2004)", "format_in_all_cases": "cell-based, human", "key": {"[1]": {"test_system": "normal bone marrow progenitor cells", "details": "10 μM, 72 hours; for colonies scored, mean of 10 normal bone marrow samples: colonies scored after 14 days", "procedure": "Bone Marrow samples from donor patients were suspended in RPMI and heparin. Approximately 5 mls of Lympoprep was poured into a sterilin and the bone marrow sample was gently layered on top. The sample was centrifuged at 1800 g for 25 min, brake at 2. Following centrifugation, the buffy coat layer which contained the mononucleur fraction was gently removed using a sterile pasteur pipette and was transferred to a fresh tube. Approximately 10 mls of RPMI was added and the sample was centrifuged at 1800 g for 10 minutes, brake at 9. The supernatant was removed and the wash repeated. The pellet was resuspended in approximately 2 mls of RPMI. 20 μl was removed from the sample, mixed with 380 μl of ethidium bromide/acridine orange mix.(each at 100 μg/ml in PBS, 1:1 v/v). Ethidium bromide and acridine orange are fluorescent dyes which bind DNA. Acridine orange intercalates into DNA giving it a green appearance. Ethidium bromide is taken up by non-viable cells only. This dye also intercalates into the DNA, making it appear orange. The cells were counted under a fluorescent microscope and the volume of cells was adjusted to obtain 4×10^6 cells per ml. Cells were divided into 2 flasks and treated with 0.5% (v/v) ethanol or 10 μM PBOX-6. 100 μl was taken from each flask and added to 1.9 mls of culture media (0.58 ml methylcellulose, 0.55 ml FCS, 0.18 ml BSA, 0.21 ml RPMI, 5 U/ml of granulocytoe monocyte-colony stimulating factor (GM-CSF) and 20 U/ml of erythropoietin (EPO). Tubes were mixed by vortexing and allowed to stand for 1 min before adding 0.5 ml into each of three wells of a 4 well dish. 0.5 ml of sterile water was added to the fourth well. Plates were incubated at 37° C. for 14 days. After 14 days, colonies were scored. A colony is scored as a cluster containing >40 cells, which originates form one stem cell. […]"}, "K562 cells [2]": {"test_system": "K562 cells", "assay": "Apoptosis in K562 cells, cytospin and staining", "details": "K562, 16 hours"}, "Jurkat cells [3]": {"test_system": "Jurkat cells", "details": "1 hour, then etoposide 16 hours"}, "[4]": {"test_system": "CEM (T lymphoblastoid) cells", "assay": "Apoptosis in CEM cells (neo and Bcl-2 overexpressing)"}, "NFκB": {"test_system": "NFκB", "assay": "NF kappa B binding activity, HL-60 nuclear extracts", "details": "HL-60 cells", "procedure": "Cells were fractionated, and nuclear extracts were prepared as described by Stylianou et al. (1992). Briefly, cells were added to ice-cold phosphate-buffered saline and centrifuged using a swing out rotor at 136×g. They were washed in buffer A (10 mM Hepes, pH 7.9, 1.5 mM MgCl2, 10 mM KCl, […] [PMSF]) and centrifuged at 10000×g for 10 min. They were treated with buffer A+0.1% (vol/vol) Nonidet P40 on ice for 10 min. They were then centrifuged at 10000×g for 10 min and the pellet was treated with buffer C (20 mM Hepes, pH 7.9, 420 mM NaCl, 1.5 mM MgCl2, 2 mM EDTA, 20% [vol/vol] glycerol, 0.5 mM PMSF) on ice for 15 min. This material was centrifuged at 10000×g for 10 min and the supernatant was added to 75 u l of buffer D [10 mM Hepes, pH 7.9, 50 mM KCl, 0.2 mM EDTA, 20% (vol/vol) glycerol, 0.5 mM PMSF] per sample. The protein concentration in this crude nuclear extract was determined using the method of Bradford (1976). Protein (4 μg) was incubated with 10000 cpm of a ^32P-labelled oligonucleotide, containing the consensus sequence for NF kappa B, with binding buffer [40% (vol/vol) glycerol, 1 mM EDTA, 10 mM Tris, pH 7.5, 100 mM NaCl, 0.1 mg/ml nuclease free BSA] and 2 μg of poly(dI-dC) at room temperature for 30 min. Samples were resolved on a 5% native polyacrylamide gel which was subsequently dried and autoradiographed at −70° C. overnight."}, "JNK1 and JNK2": {"test_system": "JNK1 and JNK2", "assay": "Western blot of JNK activation in Lama 84 and KYO.1 cells", "details": "Lama 84 and KYO.1, 45 minutes"}, "p42-44": {"test_system": "p42-44", "assay": "Western blot of p42-44 activation in K562 cells"}, "Jurkat cells [5]": {"test_system": "Jurkat cells", "details": "0.5 μM 1 hour, then etoposide 2.5 μM 1 hour", "procedure": "(§1) This assay was set up as described by Kohn et al., 1976 with the following modifications.\n(§2) Cells were seeded at 0.4×10^6 cells/ml and were in the logarithmic phase of growth. […] Cells harvested for the experiments were at a density of 2×10^6 cells/ml.\n(§3) Cells (1×10^6) were labelled with [^3H] thymidine (sp. act. 2 Ci/mmol) (0.2 μCi/ml) and 1 μM unlabelled thymidine, and incubated for 20 hr. Cells were harvested by centrifugation at 500×g for 5 mins following by two washes in PBS and the pellet was resuspended in 3 ml of PBS. Cells were aliquoted into 1 ml amounts in a 24 well plate and allowed to recover for 1 hr at 37° C. before treating with indicated compounds. Following treatment, cells were washed once in PBS and resuspended in 250 μl of PBS. An aliquot of cells (200 μl) was loaded directly onto a 25 mm diameter glass fiber filter, pore size of 0.2 μM. The cells were lysed on the filter by the addition of 5 ml lysis buffer (2% (w/v) SDS, 10 mM disodium EDTA (pH 10) supplemented with 0.5 mg/ml proteinase K. The lysis buffer was allowed to flow slowly through the filter without suction. Filters were washed using 3 ml wash solution (0.02M Na3EDTA pH 10) allowing it to flow without suction. Filters were eluted in the dark with an alkaline solution (0.04M EDTA plus tetrapropylammonium hydroxide (10% in H2O ) added in the amount required to give pH 12.1). The elution apparatus consisted of a filter funnel with output tubing passing through a peristaltic pump to a collector. Elution took place overnight at a flow rate of 0.05 ml/min. Following elution, filters were treated with 0.4 ml HCl (1N) for 1 hr at 70° C. followed by 2.5 ml NaOH (0.4N) for 30 min at room temp. Scintillation fluid (10 ml) was added and radioactivity remaining on the filters was determined by scintillation counting."}, "K562 cells [6]": {"test_system": "K562 cells", "details": "3 hours", "procedure": "as §1, §2, §3"}}, "note": "Like-named read-outs stand apart in the source and are kept apart here.", "data": [{"compound": "CN(C)C(=O)OC1=C(c2cccc3ccccc23)Oc2ccccc2-n2cccc21", "note": "[PBOX-6, 7-((Dimethylcarbamoyl)oxy)-6-(1-naphthyl)pyrrolo[2,1-d][1,5]benzoxazepine]", "values": [{"measurement": "effect on normal bone marrow progenitor cells", "setting": "[1]", "result": "no significant effect"}, {"measurement": "colonies scored, mean of 10 normal bone marrow samples", "setting": "[1]", "result": 17}, {"measurement": "colonies scored, mean of 10 normal bone marrow samples", "setting": "[1]; listed as PBOX 6", "result": 16.9}, {"measurement": "cells that had undergone apoptosis", "setting": "K562 cells [2]", "result": "40-50%"}, {"measurement": "effect of pretreatment on etoposide induced apoptosis", "setting": "Jurkat cells [3]", "result": "does not protect against etoposide induced apoptosis"}, {"measurement": "induction of apoptosis in CEM cells overexpressing Bcl-2", "setting": "[4]; Bcl-2 overexpressing", "result": "dose-dependent induction of apoptosis"}, {"measurement": "induction of apoptosis in normal CEM cells", "setting": "[4]; normal (neo) CEM", "result": "dose-dependent induction of apoptosis"}, {"measurement": "effect on NFκB", "setting": "NFκB", "result": "failed to affect NFκB expression"}, {"measurement": "activation of JNK1 and JNK2", "setting": "JNK1 and JNK2", "result": "found to be activated"}, {"measurement": "activation of p42-44", "setting": "p42-44", "result": "not activated"}, {"measurement": "effect of pretreatment on etoposide induced DNA strand breaks", "setting": "Jurkat cells [5]", "result": "did not prevent the induction of DNA strand breaks by etoposide"}, {"measurement": "DNA strand breaks", "setting": "K562 cells [6]", "result": "did not show any significant increase in DNA strand breaks"}]}]}
